Experiment [1] deals with T1, soluble guanylate cyclase (sGC) (Homo sapiens (Human), UniProt Q02108+Q02153). Put plainly: sGC-HEK-cGMP assay run with SNP incubation (HEK WC assay). Format: cell-based. As to conditions: for HEK WC Assay (fold increase at 30 μM in the presence of 10 μM SNP): compound at 30 μM; for EC50: in the presence of 10 uM SNP. A digest of the protocol: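 EC50 values derive from concentration-response curves of intracellular cGMP in HEK293 cells, which express sGC endogenously. Compound and sodium nitroprusside were co-incubated 10 min at 37 °C after a 15-min 0.5 mM IBMX step, with 0.1 M HCl lysis and 1% DMSO vehicle.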
T1 sequence (Q02153 whole entry): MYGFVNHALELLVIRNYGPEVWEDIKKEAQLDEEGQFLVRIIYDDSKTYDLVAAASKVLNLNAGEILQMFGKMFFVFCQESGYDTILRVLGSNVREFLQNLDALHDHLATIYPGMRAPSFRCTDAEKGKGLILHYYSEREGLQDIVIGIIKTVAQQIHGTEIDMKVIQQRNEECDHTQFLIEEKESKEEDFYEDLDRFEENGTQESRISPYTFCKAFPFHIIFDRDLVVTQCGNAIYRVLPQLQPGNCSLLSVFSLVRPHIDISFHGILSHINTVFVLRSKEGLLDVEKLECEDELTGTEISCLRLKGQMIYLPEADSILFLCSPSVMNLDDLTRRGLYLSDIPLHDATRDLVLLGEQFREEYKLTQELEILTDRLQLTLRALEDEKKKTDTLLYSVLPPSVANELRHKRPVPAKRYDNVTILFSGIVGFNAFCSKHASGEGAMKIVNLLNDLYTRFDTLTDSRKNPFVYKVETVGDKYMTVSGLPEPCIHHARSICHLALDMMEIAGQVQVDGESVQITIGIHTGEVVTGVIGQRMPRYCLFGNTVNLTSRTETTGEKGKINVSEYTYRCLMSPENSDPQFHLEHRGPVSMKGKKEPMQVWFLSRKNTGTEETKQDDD
T1 sequence (Q02108 whole entry): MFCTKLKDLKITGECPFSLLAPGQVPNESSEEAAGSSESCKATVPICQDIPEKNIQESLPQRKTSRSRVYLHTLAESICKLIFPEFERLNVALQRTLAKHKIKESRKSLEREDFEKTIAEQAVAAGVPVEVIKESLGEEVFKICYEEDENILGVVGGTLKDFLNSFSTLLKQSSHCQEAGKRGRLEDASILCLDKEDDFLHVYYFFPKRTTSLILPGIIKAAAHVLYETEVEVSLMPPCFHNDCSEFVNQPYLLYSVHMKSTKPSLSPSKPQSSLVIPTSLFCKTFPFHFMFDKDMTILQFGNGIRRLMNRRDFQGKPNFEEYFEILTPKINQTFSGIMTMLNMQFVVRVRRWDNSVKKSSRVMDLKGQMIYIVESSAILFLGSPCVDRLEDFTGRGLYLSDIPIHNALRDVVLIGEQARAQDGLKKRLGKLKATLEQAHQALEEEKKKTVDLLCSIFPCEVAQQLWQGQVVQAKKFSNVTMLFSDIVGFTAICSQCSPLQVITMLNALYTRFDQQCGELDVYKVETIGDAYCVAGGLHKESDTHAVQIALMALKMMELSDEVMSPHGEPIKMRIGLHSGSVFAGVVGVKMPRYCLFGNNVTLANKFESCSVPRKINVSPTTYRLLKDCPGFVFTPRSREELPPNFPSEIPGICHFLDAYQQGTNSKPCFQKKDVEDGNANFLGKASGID

The target of experiment [2] is T1, soluble guanylate cyclase (sGC). Put plainly: sGC-HEK-cGMP assay run in the absence of SNP (HEK WC assay). Format: cell-based. The conditions noted are these: compound at 30 μM, absence of SNP. The procedure, abridged: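 Intracellular cGMP was measured by LC/MS, using a standard curve, in HEK293 cells treated with compound for 10 min at 37° C after a 15 min 0.5 mM IBMX pretreatment, with no SNP present. Lysis and quench used 0.1 M HCl. EC50 values came from concentration-response fits.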

Where [3] appears, read: read-out: HEK WC Assay (% Emax at 1 μM with 10 uM SNP).
[4] abbreviates: read-out: HEK WC Assay (% Emax at 10 μM with 10 uM SNP).
[5] abbreviates: read-out: HEK WC Assay (% Emax at 30 μM with 10 uM SNP).

Each structure is given as a SMILES string. Like-named read-outs stand apart in the source and are kept apart here. Bounds are passed on as bounds.

Consider `Nc1nc(-c2cc(-c3ccon3)n(Cc3ccccc3F)n2)ncc1NC(=O)[C@@H]1CCCN1` [Compound I-225], for which the “HEK WC Assay (fold increase at 30 μM in the presence of 10 μM SNP)” value in experiment [1] was “E (E = 10 to <20 fold increase)”. The EC50 (commonly the midpoint of the concentration-response curve) in experiment [1] lay within 60 to 100 µM. Further, the figures for the Emax in experiment [1] (setting [3]), in experiment [1] (setting [4]) and in experiment [1] (setting [5]) were 0 to 10%, 20 to 40% and 20 to 40%, respectively. Moreover, the “HEK WC Assay (fold increase at 30 μM in the absence of SNP)” value in experiment [2] is recorded as “C (C = 2 to <5 fold increase)”.
Consider `Fc1cccc(Cn2nc(-c3ncccn3)cc2-c2ccon2)c1F` [Compound I-198], for which, in experiment [1], the “HEK WC Assay (fold increase at 30 μM in the presence of 10 μM SNP)” value is “E (E = 10 to <20 fold increase)”. For the same compound, the EC50 in experiment [1] was under 20 µM. Besides, the Emax (commonly the maximal effect, on the per cent scale that the assay sets) in experiment [1] (setting [3]) was 40 to 60%; in experiment [1] (setting [4]) it was 40 to 60%; in experiment [1] (setting [5]), 60 to 80%. Also, the “HEK WC Assay (fold increase at 30 μM in the absence of SNP)” value in experiment [2] was “D (D = 5 to <10 fold increase)”.
For `CC(C)(O)C(=O)Nc1cnc(-c2cc(-c3ccon3)n(Cc3ccccc3F)n2)nc1N` [Compound I-209], in experiment [1], the “HEK WC Assay (fold increase at 30 μM in the presence of 10 μM SNP)” value was “E (E = 10 to <20 fold increase)”. The EC50 in experiment [1] was 20 to 40 µM. In addition, the Emax lay within 10 to 20% in experiment [1] (setting [3]), 20 to 40% in experiment [1] (setting [4]) and 40 to 60% in experiment [1] (setting [5]). Besides, in experiment [2], the “HEK WC Assay (fold increase at 30 μM in the absence of SNP)” value is reported as “C (C = 2 to <5 fold increase)”.
Turning to `Nc1nc(-c2cc(-c3ccon3)n(Cc3ccccc3F)n2)ncc1NC(=O)c1ccc(Cl)cc1` [Compound I-182], in experiment [1], the “HEK WC Assay (fold increase at 30 μM in the presence of 10 μM SNP)” value was “E (E = 10 to <20 fold increase)”. Further, in experiment [1], the EC50 is under 20 µM. Moreover, the Emax in experiment [1] (setting [3]) fell in the range of 60 to 80%; in experiment [1] (setting [4]), 80 to 100%; in experiment [1] (setting [5]), 80 to 100%. In addition, the “HEK WC Assay (fold increase at 30 μM in the absence of SNP)” value in experiment [2] was “E (E = 10 to <20 fold increase)”.
For `Fc1cccc(F)c1Cn1nc(-c2ncccn2)cc1-c1ccon1` [Compound I-199], in experiment [1], the “HEK WC Assay (fold increase at 30 μM in the presence of 10 μM SNP)” value was “E (E = 10 to <20 fold increase)”. Besides, in experiment [1], the EC50 was in the range of 20 to 40 µM. Further, the results for the Emax in experiment [1] (setting [3]), in experiment [1] (setting [4]) and in experiment [1] (setting [5]) were 10 to 20%, 20 to 40% and 40 to 60%, respectively. Also, the “HEK WC Assay (fold increase at 30 μM in the absence of SNP)” value in experiment [2] was “C (C = 2 to <5 fold increase)”.
For `Cc1cc(O)nc(-c2cc(-c3ccon3)n(Cc3ccccc3F)n2)n1` [Compound I-298], the “HEK WC Assay (fold increase at 30 μM in the presence of 10 μM SNP)” value in experiment [1] is “C (C = 2 to <5 fold increase)”. In addition, the Emax in experiment [1] (setting [4]) fell in the range of 10 to 20%; in experiment [1] (setting [5]), 20 to 40%. For the same compound, the “HEK WC Assay (fold increase at 30 μM in the absence of SNP)” value in experiment [2] was “B (B = 1 to <2 fold increase)”.
In the case of `CNc1cnc(-c2cc(-c3ccon3)n(Cc3ccccc3F)n2)nc1N` [Compound I-143], in experiment [1], the “HEK WC Assay (fold increase at 30 μM in the presence of 10 μM SNP)” value is reported as “D (D = 5 to <10 fold increase)” and the EC50 fell in the range of 40 to 60 µM. For the same compound, the Emax in experiment [1] (setting [4]) lay in the range of 40 to 60%. Moreover, the Emax in experiment [1] (setting [5]) fell in the range of 40 to 60%. Further, in experiment [2], the “HEK WC Assay (fold increase at 30 μM in the absence of SNP)” value is listed as “C (C = 2 to <5 fold increase)”.
Consider `Fc1ccccc1Cn1nc(-c2ncccn2)cc1-c1ncco1` [Compound I-309], for which, in experiment [1], the “HEK WC Assay (fold increase at 30 μM in the presence of 10 μM SNP)” value was “E (E = 10 to <20 fold increase)”. For the same compound, in experiment [1], the EC50 was under 20 µM. Further, the Emax in experiment [1] (setting [4]) and in experiment [1] (setting [5]) was 20 to 40% throughout. The “HEK WC Assay (fold increase at 30 μM in the absence of SNP)” value in experiment [2] was “B (B = 1 to <2 fold increase)”.
Take `Nc1nc(-c2cc(-c3ccon3)n(Cc3ccccc3F)n2)ncc1NC(=O)c1cccc(F)c1` [Compound I-171]: the “HEK WC Assay (fold increase at 30 μM in the presence of 10 μM SNP)” value in experiment [1] is reported as “E (E = 10 to <20 fold increase)”. The EC50 in experiment [1] was under 20 µM. Besides, the Emax in experiment [1] (setting [3]) fell in the range of 60 to 80%; in experiment [1] (setting [4]), 100 to 120%; in experiment [1] (setting [5]) it was 80 to 100%. In experiment [2], the “HEK WC Assay (fold increase at 30 μM in the absence of SNP)” value is “E (E = 10 to <20 fold increase)”.
Regarding `Fc1ccccc1Cn1nc(-c2ccccn2)cc1-n1cncn1` [Compound I-289], the “HEK WC Assay (fold increase at 30 μM in the presence of 10 μM SNP)” value in experiment [1] was “B (B = 1 to <2 fold increase)”. The Emax in experiment [1] (setting [4]) and in experiment [1] (setting [5]) was 0 to 10% in each case. Also, the “HEK WC Assay (fold increase at 30 μM in the absence of SNP)” value in experiment [2] was “B (B = 1 to <2 fold increase)”.
For `c1cnc(-c2cc(-c3ccon3)n(Cc3cncnc3)n2)nc1` [Compound I-208], in experiment [1], the “HEK WC Assay (fold increase at 30 μM in the presence of 10 μM SNP)” value is given as “D (D = 5 to <10 fold increase)”. Moreover, the EC50 in experiment [1] fell in the range of 100 to 300 µM. Also, the Emax in experiment [1] (setting [3]) was in the range of 0 to 10%; in experiment [1] (setting [4]), 10 to 20%; in experiment [1] (setting [5]) it was 10 to 20%. Moreover, the “HEK WC Assay (fold increase at 30 μM in the absence of SNP)” value in experiment [2] was “B (B = 1 to <2 fold increase)”.
For `Fc1ccccc1Cn1nc(-c2ccccn2)cc1-c1cncs1` [Compound I-311], the “HEK WC Assay (fold increase at 30 μM in the presence of 10 μM SNP)” value in experiment [1] is listed as “C (C = 2 to <5 fold increase)”. Further, the Emax in experiment [1] (setting [4]) and in experiment [1] (setting [5]) was 0 to 10% each time. Moreover, the “HEK WC Assay (fold increase at 30 μM in the absence of SNP)” value in experiment [2] is listed as “B (B = 1 to <2 fold increase)”.
As for `O=[N+]([O-])c1cnc(-c2cc(-c3ccon3)n(Cc3ccccc3F)n2)nc1O` [Compound I-170], the “HEK WC Assay (fold increase at 30 μM in the presence of 10 μM SNP)” value in experiment [1] is listed as “B (B = 1 to <2 fold increase)”. The Emax in experiment [1] (setting [3]) and in experiment [1] (setting [4]) was 0 to 10% each time. In experiment [2], the “HEK WC Assay (fold increase at 30 μM in the absence of SNP)” value is given as “B (B = 1 to <2 fold increase)”.
As for `Cc1cc(Cl)nc(-c2cc(-c3ccon3)n(Cc3ccccc3F)n2)n1` [Compound I-299], in experiment [1], the “HEK WC Assay (fold increase at 30 μM in the presence of 10 μM SNP)” value is reported as “F (F = 20 to <30 fold increase)” and the concentration giving a half-maximal response (EC50) was under 20 µM. The Emax in experiment [1] (setting [4]) lay within 60 to 80%. For the same compound, the Emax in experiment [1] (setting [5]) lay within 60 to 80%. Further, in experiment [2], the “HEK WC Assay (fold increase at 30 μM in the absence of SNP)” value is on record as “C (C = 2 to <5 fold increase)”.
For the compound `c1cnc(-c2cc(-c3ccon3)n(Cc3cnccn3)n2)nc1` [Compound I-221], the “HEK WC Assay (fold increase at 30 μM in the presence of 10 μM SNP)” value in experiment [1] is on record as “C (C = 2 to <5 fold increase)”. In addition, the Emax in experiment [1] (setting [3]) lay in the range of 0 to 10%; in experiment [1] (setting [4]) it was 0 to 10%; in experiment [1] (setting [5]) it was 10 to 20%. In addition, the “HEK WC Assay (fold increase at 30 μM in the absence of SNP)” value in experiment [2] was “B (B = 1 to <2 fold increase)”.
`NCC(=O)Nc1cnc(-c2cc(-c3ccon3)n(Cc3ccccc3F)n2)nc1N` [Compound I-213]: the “HEK WC Assay (fold increase at 30 μM in the presence of 10 μM SNP)” value in experiment [1] is given as “E (E = 10 to <20 fold increase)”. The EC50 in experiment [1] lay in the range of 60 to 100 µM. Moreover, the Emax in experiment [1] (setting [3]) is 0 to 10%; in experiment [1] (setting [4]) it was 10 to 20%; in experiment [1] (setting [5]), 20 to 40%. For the same compound, the “HEK WC Assay (fold increase at 30 μM in the absence of SNP)” value in experiment [2] is “D (D = 5 to <10 fold increase)”.
In the case of `Nc1nc(-c2cc(-c3ccon3)n(Cc3ccccc3F)n2)ncc1NC(=O)C12CC3CC(CC(C3)C1)C2` [Compound I-233], in experiment [1], the “HEK WC Assay (fold increase at 30 μM in the presence of 10 μM SNP)” value is reported as “F (F = 20 to <30 fold increase)”. The EC50 in experiment [1] was under 20 µM. The Emax in experiment [1] (setting [3]), in experiment [1] (setting [4]) and in experiment [1] (setting [5]) was 80 to 100% in each case. Further, the “HEK WC Assay (fold increase at 30 μM in the absence of SNP)” value in experiment [2] is recorded as “E (E = 10 to <20 fold increase)”.
As for `CC1(C(=O)Nc2cnc(-c3cc(-c4ccon4)n(Cc4ccccc4F)n3)nc2N)CCCO1` (stereo not drawn) [Compound I-232], in experiment [1], the “HEK WC Assay (fold increase at 30 μM in the presence of 10 μM SNP)” value was “E (E = 10 to <20 fold increase)”. Besides, the EC50 in experiment [1] is under 20 µM. For the same compound, the Emax in experiment [1] (setting [3]) fell in the range of 20 to 40%; in experiment [1] (setting [4]), 60 to 80%; in experiment [1] (setting [5]), 60 to 80%. For the same compound, the “HEK WC Assay (fold increase at 30 μM in the absence of SNP)” value in experiment [2] is given as “C (C = 2 to <5 fold increase)”.
